In BindingDB's records for patent US10202390 (Bristol-Myers Squibb Co., 2019):

Molecular target: T1, Interleukin-1 receptor-associated kinase 4 (Homo sapiens, UniProt Q9NWZ3)
T1 sequence (Q9NWZ3 whole entry): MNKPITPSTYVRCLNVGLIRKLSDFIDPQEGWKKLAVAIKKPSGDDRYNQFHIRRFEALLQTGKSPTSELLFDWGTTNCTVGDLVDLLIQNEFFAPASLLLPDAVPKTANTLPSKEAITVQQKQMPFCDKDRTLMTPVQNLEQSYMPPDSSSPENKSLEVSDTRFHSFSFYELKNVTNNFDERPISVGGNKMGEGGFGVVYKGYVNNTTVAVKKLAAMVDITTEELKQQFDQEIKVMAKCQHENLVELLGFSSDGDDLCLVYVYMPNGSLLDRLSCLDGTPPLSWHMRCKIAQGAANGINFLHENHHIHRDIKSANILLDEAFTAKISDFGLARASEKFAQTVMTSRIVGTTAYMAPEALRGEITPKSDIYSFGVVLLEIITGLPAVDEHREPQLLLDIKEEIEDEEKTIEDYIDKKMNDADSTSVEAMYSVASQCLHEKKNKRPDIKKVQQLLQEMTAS
Assay: Not found
Description: Not found

Row | IC50 | Structure (SMILES)
1 | 10 nM | CC(C)(O)CCc1cn(-c2cnc(-c3cnn4cc(C#N)cnc34)cc2NC2COC2)nn1 [US10202390, Example 26]
2 | 63 nM | CC(C)Nc1cc(-c2cnc3cc(Cl)cnn23)ncc1-c1cnn(C2CCOCC2)c1 [US10202390, Example 2]
